This is an account of results in patent publication US11365188B2, “JAK inhibitors” (priority 2018, dated 2022).

Counter-ions that a name gives are not always drawn.

Assay type in all cases: biochemical
In test [1] the target is T1, JAK3 (Homo sapiens, UniProt P52333).
T1 sequence (P52333 1-1124): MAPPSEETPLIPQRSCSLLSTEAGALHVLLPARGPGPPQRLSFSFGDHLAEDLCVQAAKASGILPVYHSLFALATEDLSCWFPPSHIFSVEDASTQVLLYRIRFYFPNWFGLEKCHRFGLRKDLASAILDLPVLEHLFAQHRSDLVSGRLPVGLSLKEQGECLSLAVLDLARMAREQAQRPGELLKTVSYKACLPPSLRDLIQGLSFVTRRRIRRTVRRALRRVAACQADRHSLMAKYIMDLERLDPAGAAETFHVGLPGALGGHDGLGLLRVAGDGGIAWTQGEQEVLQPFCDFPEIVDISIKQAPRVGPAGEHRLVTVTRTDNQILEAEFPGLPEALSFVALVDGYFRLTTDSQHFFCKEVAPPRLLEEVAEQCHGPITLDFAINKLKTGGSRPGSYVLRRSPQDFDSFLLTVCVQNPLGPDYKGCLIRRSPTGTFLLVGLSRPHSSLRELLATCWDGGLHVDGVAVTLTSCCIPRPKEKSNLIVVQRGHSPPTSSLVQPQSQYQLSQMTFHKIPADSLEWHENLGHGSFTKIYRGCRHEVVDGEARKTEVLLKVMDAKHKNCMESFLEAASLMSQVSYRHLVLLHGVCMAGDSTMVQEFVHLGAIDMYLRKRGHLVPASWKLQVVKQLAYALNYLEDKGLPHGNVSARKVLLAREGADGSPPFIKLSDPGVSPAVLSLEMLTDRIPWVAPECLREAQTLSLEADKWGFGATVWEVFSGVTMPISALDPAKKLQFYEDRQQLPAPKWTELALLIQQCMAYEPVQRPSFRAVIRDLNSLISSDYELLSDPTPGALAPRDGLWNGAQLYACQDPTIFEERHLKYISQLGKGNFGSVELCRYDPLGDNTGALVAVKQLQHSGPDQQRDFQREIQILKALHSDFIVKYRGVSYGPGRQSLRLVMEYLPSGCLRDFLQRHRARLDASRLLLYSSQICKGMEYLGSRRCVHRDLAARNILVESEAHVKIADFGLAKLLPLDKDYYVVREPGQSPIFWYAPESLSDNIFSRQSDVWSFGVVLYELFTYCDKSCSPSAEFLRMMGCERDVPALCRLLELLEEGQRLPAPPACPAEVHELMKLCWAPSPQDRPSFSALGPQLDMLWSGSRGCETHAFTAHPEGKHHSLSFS
Kind of test: JAK3 Assay (Caliper EZ Reader, fluoresceinated peptide). The conditions noted are these: ATP 3.5 μM; JAK3 0.5 nM; 30 minutes at room temperature; read-out: JAK3 inhibition.

For test [2], the target named is JAK2 (Homo sapiens, UniProt O60674). Put plainly: JAK2 Assay (Caliper EZ Reader, fluoresceinated peptide). To be noted: ATP 11.4 μM; JAK2 0.25 nM; 15 minutes at room temperature; read-out: JAK2 inhibition.
Sequence of JAK2 (O60674 whole entry, species assumed): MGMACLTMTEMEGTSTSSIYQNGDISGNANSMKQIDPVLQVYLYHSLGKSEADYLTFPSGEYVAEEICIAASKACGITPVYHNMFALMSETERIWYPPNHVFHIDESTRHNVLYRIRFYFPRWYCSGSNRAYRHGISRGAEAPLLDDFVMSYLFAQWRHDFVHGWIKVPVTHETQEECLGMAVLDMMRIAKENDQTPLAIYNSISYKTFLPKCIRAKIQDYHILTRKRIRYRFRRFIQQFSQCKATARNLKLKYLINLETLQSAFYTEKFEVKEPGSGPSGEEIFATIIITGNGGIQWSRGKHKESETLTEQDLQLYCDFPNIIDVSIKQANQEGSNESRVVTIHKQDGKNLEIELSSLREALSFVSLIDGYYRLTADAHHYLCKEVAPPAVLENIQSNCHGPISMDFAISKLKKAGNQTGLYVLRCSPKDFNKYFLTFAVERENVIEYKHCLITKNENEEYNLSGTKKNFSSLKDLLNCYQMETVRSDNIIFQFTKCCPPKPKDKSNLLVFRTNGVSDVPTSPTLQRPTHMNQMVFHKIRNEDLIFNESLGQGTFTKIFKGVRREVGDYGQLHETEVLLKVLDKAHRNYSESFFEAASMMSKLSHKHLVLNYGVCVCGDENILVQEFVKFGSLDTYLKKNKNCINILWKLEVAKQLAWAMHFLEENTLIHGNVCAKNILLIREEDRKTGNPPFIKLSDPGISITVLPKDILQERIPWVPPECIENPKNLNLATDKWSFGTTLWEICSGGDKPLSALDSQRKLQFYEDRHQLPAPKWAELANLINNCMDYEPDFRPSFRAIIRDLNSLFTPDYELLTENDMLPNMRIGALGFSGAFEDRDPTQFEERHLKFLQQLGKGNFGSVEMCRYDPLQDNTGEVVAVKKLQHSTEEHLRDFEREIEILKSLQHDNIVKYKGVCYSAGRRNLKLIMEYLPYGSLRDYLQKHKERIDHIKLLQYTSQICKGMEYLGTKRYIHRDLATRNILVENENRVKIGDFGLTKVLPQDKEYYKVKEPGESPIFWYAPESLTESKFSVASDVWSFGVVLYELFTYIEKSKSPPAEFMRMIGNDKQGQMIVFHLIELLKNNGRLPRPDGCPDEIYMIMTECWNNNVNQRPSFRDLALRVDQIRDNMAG
The target of test [3] is JAK1 (Homo sapiens, UniProt P23458). Put plainly: JAK Kinase Assay (JAK1, Caliper EZ Reader, fluoresceinated peptide). The conditions noted are these: ATP 76.5 μM; JAK1 10 nM; 120 minutes at room temperature; read-out: JAK1 inhibition.
Sequence of JAK1 (P23458 whole entry, species assumed): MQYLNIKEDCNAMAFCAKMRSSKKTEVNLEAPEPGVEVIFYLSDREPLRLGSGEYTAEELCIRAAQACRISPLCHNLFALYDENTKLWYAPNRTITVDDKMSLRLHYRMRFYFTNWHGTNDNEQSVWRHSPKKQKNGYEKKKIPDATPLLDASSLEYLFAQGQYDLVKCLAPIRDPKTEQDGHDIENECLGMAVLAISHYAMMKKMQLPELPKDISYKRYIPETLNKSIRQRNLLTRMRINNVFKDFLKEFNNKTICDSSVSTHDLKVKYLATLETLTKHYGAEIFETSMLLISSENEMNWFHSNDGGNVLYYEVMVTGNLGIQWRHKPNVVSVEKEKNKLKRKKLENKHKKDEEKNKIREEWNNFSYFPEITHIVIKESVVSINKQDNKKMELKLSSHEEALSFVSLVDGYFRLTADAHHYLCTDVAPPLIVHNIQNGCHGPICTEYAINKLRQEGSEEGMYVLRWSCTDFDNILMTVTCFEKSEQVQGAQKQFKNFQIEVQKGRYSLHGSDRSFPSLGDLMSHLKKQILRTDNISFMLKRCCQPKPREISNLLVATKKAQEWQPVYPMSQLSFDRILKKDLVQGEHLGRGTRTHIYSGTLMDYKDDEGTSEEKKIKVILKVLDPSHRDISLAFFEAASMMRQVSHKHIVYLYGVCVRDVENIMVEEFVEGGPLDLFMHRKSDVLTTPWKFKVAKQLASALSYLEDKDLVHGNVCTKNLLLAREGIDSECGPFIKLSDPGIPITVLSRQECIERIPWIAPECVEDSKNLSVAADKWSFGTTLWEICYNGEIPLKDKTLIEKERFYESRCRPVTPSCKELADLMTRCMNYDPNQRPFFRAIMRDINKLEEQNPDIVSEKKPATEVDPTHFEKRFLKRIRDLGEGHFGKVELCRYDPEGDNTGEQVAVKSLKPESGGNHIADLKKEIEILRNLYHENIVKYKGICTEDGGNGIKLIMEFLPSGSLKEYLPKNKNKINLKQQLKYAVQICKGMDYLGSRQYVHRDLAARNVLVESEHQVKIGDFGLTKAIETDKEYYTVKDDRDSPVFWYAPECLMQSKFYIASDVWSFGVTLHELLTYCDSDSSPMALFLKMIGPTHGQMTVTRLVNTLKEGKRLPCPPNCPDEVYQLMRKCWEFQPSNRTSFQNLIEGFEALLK

Take `CN(c1ncnc2[nH]ccc12)C1CCC2(CC1)CCN(C(=O)c1ccc(C#N)cc1F)CC2` [Compound 84, 3-Fluoro-4-{9-[methyl-(7H-pyrrolo[2,3-d]pyrimidin-4-yl)-amino]-3-aza-spiro[5.5]undecane-3-carbonyl}-benzonitrile]: the IC50 in test [1] is 1 to 10 µM; in test [2], 0.1 to 1 µM; in test [3], 0.1 to 1 µM.

Regarding `CN(c1ncnc2[nH]ccc12)C1CCC2(CC1)CCN(C(=O)Cc1ccc(C#N)cc1)CC2` [Compound 85, 4-(2-{9-[Methyl-(7H-pyrrolo[2,3-d]pyrimidin-4-yl)-amino]-3-aza-spiro[5.5]undec-3-yl}-2-oxo-ethyl)-benzonitrile], the figures for the IC50 in test [1], in test [2] and in test [3] were 0.1 to 1 µM, 0.1 to 1 µM and 0.01 to 0.1 µM, respectively.

`CN(c1ncnc2[nH]ccc12)C1CCC2(CC1)CCN(C(=O)CCS(C)(=O)=O)CC2` [Compound 86, 3-Methanesulfonyl-1-{9-[methyl-(7H-pyrrolo[2,3-d]pyrimidin-4-yl)-amino]-3-aza-spiro[5.5]undec-3-yl}-propan-1-one]: the results for the IC50 in test [1], in test [2] and in test [3] were 1 to 10 µM, 0.1 to 1 µM and 0.1 to 1 µM, respectively.

On to `CN(c1ncnc2[nH]ccc12)C1CCC2(CC1)CCN(C(=O)c1ccc(C#N)c(F)c1)CC2` [Compound 87, 2-Fluoro-4-{9-[methyl-(7H-pyrrolo[2,3-d]pyrimidin-4-yl)-amino]-3-aza-spiro[5.5]undecane-3-carbonyl}-benzonitrile], for which the IC50 in test [1], in test [2] and in test [3] was 0.1 to 1 µM each time.

For `CN(c1ncnc2[nH]ccc12)C1CCC2(CC1)CCN(C(=O)c1cnccn1)CC2` [Compound 88, {9-[Methyl-(7H-pyrrolo[2,3-d]pyrimidin-4-yl)-amino]-3-aza-spiro[5.5]undec-3-yl}-pyrazin-2-yl-methanone], the figures for the IC50 in test [1], in test [2] and in test [3] were 1 to 10 µM, 0.1 to 1 µM and 0.1 to 1 µM, respectively.

For `CN(c1ncnc2[nH]ccc12)C1CCC2(CC1)CCN(C(=O)C1(C#N)CC1)CC2` [Compound 89, 1-{9-[Methyl-(7H-pyrrolo[2,3-d]pyrimidin-4-yl)-amino]-3-aza-spiro[5.5]undecane-3-carbonyl}-cyclopropanecarbonitrile], the IC50 lay within 1 to 10 µM in test [1], 0.1 to 1 µM in test [2] and 0.1 to 1 µM in test [3].

For `Cc1cncc(C(=O)N2CCC3(CCC(N(C)c4ncnc5[nH]ccc45)CC3)CC2)n1` [Compound 90, (6-Methyl-pyrazin-2-yl)-{9-[methyl-(7H-pyrrolo[2,3-d]pyrimidin-4-yl)-amino]-3-aza-spiro[5.5]undec-3-yl}-methanone], the results for the IC50 in test [1], in test [2] and in test [3] were 1 to 10 µM, 0.1 to 1 µM and 0.1 to 1 µM, respectively.

In the case of `CN(c1ncnc2[nH]ccc12)C1CCC2(CC1)CCN(C(=O)CCC(F)(F)F)CC2` [Compound 91, 4,4,4-Trifluoro-1-{9-[methyl-(7H-pyrrolo[2,3-d]pyrimidin-4-yl)-amino]-3-aza-spiro[5.5]undec-3-yl}-butan-1-one], the IC50 in test [1] fell in the range of 1 to 10 µM; in test [2] it was 0.1 to 1 µM; in test [3] it was 0.1 to 1 µM.

Consider `CN(c1ncnc2[nH]ccc12)C1CCC2(CC1)CCN(C(=O)c1csc3ccccc13)CC2` [Compound 92, Benzo[b]thiophen-3-yl-{9-[methyl-(7H-pyrrolo[2,3-d]pyrimidin-4-yl)-amino]-3-aza-spiro[5.5]undec-3-yl}-methanone], for which the IC50 in test [1], in test [2] and in test [3] was 0.1 to 1 µM throughout.

On to `CN(c1ncnc2[nH]ccc12)C1CCC2(CC1)CCN(C(=O)Cc1c[nH]c3ccccc13)CC2` [Compound 93, 2-(1H-Indol-3-yl)-1-{9-[methyl-(7H-pyrrolo[2,3-d]pyrimidin-4-yl)-amino]-3-aza-spiro[5.5]undec-3-yl}-ethanone], for which the IC50 in test [1], in test [2] and in test [3] was 0.1 to 1 µM in each case.

As for `Cc1ccsc1C(=O)N1CCC2(CCC(N(C)c3ncnc4[nH]ccc34)CC2)CC1` [Compound 94, {9-[Methyl-(7H-pyrrolo[2,3-d]pyrimidin-4-yl)-amino]-3-aza-spiro[5.5]undec-3-yl}-(3-methyl-thiophen-2-yl)-methanone], the IC50 fell in the range of 1 to 10 µM in test [1], 0.1 to 1 µM in test [2] and 0.1 to 1 µM in test [3].

In the case of `CN(c1ncnc2[nH]ccc12)C1CCC2(CC1)CCN(C(=O)c1cc3ccccc3[nH]1)CC2` [Compound 95, (1H-Indol-2-yl)-{9-[methyl-(7H-pyrrolo[2,3-d]pyrimidin-4-yl)-amino]-3-aza-spiro[5.5]undec-3-yl}-methanone], the IC50 in test [1], in test [2] and in test [3] was 0.1 to 1 µM throughout.

Take `CCCS(=O)(=O)N1CCC2(CCC(N(C)c3ncnc4c3CCN4)CC2)CC1` [Compound 96, (6,7-Dihydro-5H-pyrrolo[2,3-d]pyrimidin-4-yl)-methyl-[3-(propane-1-sulfonyl)-3-aza-spiro[5.5]undec-9-yl]-amine]: the IC50 in test [1] fell in the range of 1 to 10 µM; in test [2], 0.1 to 1 µM; in test [3], 0.1 to 1 µM.

In the case of `CNCC(=O)N1CCC2(CCC(N(C)c3ncnc4[nH]ccc34)CC2)CC1` [Compound 97, 2-Methylamino-1-{9-[methyl-(7H-pyrrolo[2,3-d]pyrimidin-4-yl)-amino]-3-aza-spiro[5.5]undec-3-yl}-ethanone HCl salt], the IC50 lay in the range of 1 to 10 µM in test [1], 0.1 to 1 µM in test [2] and 0.1 to 1 µM in test [3].

In the case of `CC(C)OC(=O)N1CCC2(CCC(N(C)c3ncnc4c3CCN4)CC2)CC1` [Compound 98, 9-[(6,7-Dihydro-5H-pyrrolo[2,3-d]pyrimidin-4-yl)-methyl-amino]-3-aza-spiro[5.5]undecane-3-carboxylic acid isopropyl ester], the results for the IC50 in test [1], in test [2] and in test [3] were 1 to 10 µM, 0.1 to 1 µM and 0.01 to 0.1 µM, respectively.

As for `CN(c1ncnc2[nH]ccc12)C1CCC2(CC1)CCN(C(=O)C1CC1)CC2` [Compound 99, Cyclopropyl-{9-[methyl-(7H-pyrrolo[2,3-d]pyrimidin-4-yl)-amino]-3-aza-spiro[5.5]undec-3-yl}-methanone], the IC50 in test [1] lay in the range of 1 to 10 µM; in test [2], 0.1 to 1 µM; in test [3] it was 0.01 to 0.1 µM.

As for `CCCC(=O)N1CCC2(CCC(N(C)c3ncnc4[nH]ccc34)CC2)CC1` [Compound 100, 1-{9-[Methyl-(7H-pyrrolo[2,3-d]pyrimidin-4-yl)-amino]-3-aza-spiro[5.5]undec-3-yl}-butan-1-one], the IC50 in test [1] lay within 1 to 10 µM; in test [2], 0.1 to 1 µM; in test [3], 0.1 to 1 µM.

With `CN(c1ncnc2[nH]ccc12)C1CCC2(CC1)CCN(C(=O)c1cccc(OC(F)(F)F)c1)CC2` [Compound 101, {9-[Methyl-(7H-pyrrolo[2,3-d]pyrimidin-4-yl)-amino]-3-aza-spiro[5.5]undec-3-yl}-(3-trifluoromethoxy-phenyl)-methanone], the IC50 is 1 to 10 µM in test [1], 0.1 to 1 µM in test [2] and 0.1 to 1 µM in test [3].

Consider `CN(c1ncnc2[nH]ccc12)C1CCC2(CC1)CCN(C(=O)c1cccc(C#N)c1)CC2` [Compound 102, 3-{9-[Methyl-(7H-pyrrolo[2,3-d]pyrimidin-4-yl)-amino]-3-aza-spiro[5.5]undecane-3-carbonyl}-benzonitrile], for which the IC50 in test [1], in test [2] and in test [3] was 0.1 to 1 µM throughout.

Take `CN(c1ncnc2[nH]ccc12)C1CCC2(CC1)CCN(S(=O)(=O)CC(F)(F)F)CC2` [Compound 103, Methyl-(7H-pyrrolo[2,3-d]pyrimidin-4-yl)-[3-(2,2,2-trifluoro-ethanesulfonyl)-3-aza-spiro[5.5]undec-9-yl]-amine]: the IC50 was 0.1 to 1 µM in test [1], 0.1 to 1 µM in test [2] and 0.01 to 0.1 µM in test [3].

For the compound `CN(c1ncnc2[nH]ccc12)C1CCC2(CC1)CCN(C(=O)CC#N)CC2` [Compound 104, 3-{9-[Methyl-(7H-pyrrolo[2,3-d]pyrimidin-4-yl)-amino]-3-aza-spiro[5.5]undec-3-yl}-3-oxo-propionitrile], the IC50 in test [1], in test [2] and in test [3] was 1 to 10 µM throughout.
